T1: Beta-galactoside alpha-2,6-sialyltransferase 1 (Rattus norvegicus) (UniProt P13721)
T1 sequence (whole entry): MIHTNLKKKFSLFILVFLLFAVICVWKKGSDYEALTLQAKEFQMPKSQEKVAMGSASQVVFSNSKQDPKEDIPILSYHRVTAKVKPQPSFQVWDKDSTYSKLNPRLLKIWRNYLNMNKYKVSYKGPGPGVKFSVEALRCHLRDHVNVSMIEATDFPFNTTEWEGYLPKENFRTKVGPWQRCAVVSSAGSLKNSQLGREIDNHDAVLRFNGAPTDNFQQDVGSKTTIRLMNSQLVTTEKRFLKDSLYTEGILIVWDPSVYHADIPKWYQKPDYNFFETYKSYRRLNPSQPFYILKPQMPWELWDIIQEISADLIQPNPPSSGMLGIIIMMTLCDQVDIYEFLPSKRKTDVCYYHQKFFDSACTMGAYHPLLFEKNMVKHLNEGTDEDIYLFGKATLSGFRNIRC

B1: Beta-galactoside alpha-2,6-sialyltransferase 1 (Rattus norvegicus), P13721 (protein)
chain: T1 sequence (whole entry)

Key:
[1] = target: T1, Beta-galactoside alpha-2,6-sialyltransferase 1 (Rattus norvegicus); test: Evaluation of kinetic constant for rat liver GaI-beta-1,4GIcNAc alpha2,6-sialyltransferase in presence of compound
[2] = Evaluation of ratio of Michaelis-Menten constant to that of kinetic constant against 2,6-sialyltransferase in presence of compound
[3] = compound: CC(=O)NC1C(O)CC(OP(=O)(O)OC[C@H]2OC(n3ccc(N)nc3=O)[C@H](O)[C@@H]2O)(C(=O)O)OC1[C@H](O)[C@H](O)CNC(=O)c1ccc(C(=O)c2ccccc2)cc1; test: (§1) Evaluation of Michaelis-Menten constant of rat liver GaI-beta-1,4GIcNAc alpha2,6-sialyltransferase in presence of compound
[4] = compound: CC(=O)NC1C(O)CC(OP(=O)(O)OC[C@H]2OC(n3ccc(N)nc3=O)[C@H](O)[C@@H]2O)(C(=O)O)OC1[C@H](O)[C@H](O)CNC(=O)c1ccc(N=[N+]=[N-])cc1; test: as §1
[5] = compound: CC(=O)NC1C(O)CC(OP(=O)(O)OC[C@H]2OC(n3ccc(N)nc3=O)[C@H](O)[C@@H]2O)(C(=O)O)OC1[C@H](O)[C@H](O)CNC(=O)c1ccc(N=[N+]=[N-])cc1O; test: as §1
[6] = compound: NCC(=O)NC1C(O)CC(OP(=O)(O)OC[C@H]2OC(n3ccc(N)nc3=O)[C@H](O)[C@@H]2O)(C(=O)O)OC1[C@H](O)C(O)CO; test: as §1
[7] = compound: [N-]=[N+]=Nc1ccc(C(=O)NCC(=O)NC2C(O)CC(OP(=O)(O)OC[C@H]3OC(n4ccc(N)nc4=O)[C@H](O)[C@@H]3O)(C(=O)O)OC2[C@H](O)[C@H](O)CO)cc1; test: as §1

Molecule	Relative Vmax [1]	Ratio [2]	Km [3] [µM]	Km [4] [µM]	Km [5] [µM]	Km [6] [µM]	Km [7] [µM]
CC(=O)NC1C(O)CC(OP(=O)(O)OC[C@H]2OC(n3ccc(N)nc3=O)[C@H](O)[C@@H]2O)(C(=O)O)OC1[C@H](O)[C@H](O)CNC(=O)c1ccc(N=[N+]=[N-])cc1 (stereo not given in full)	0.9	13.6	–	–	–	–	–
CC(=O)NC1C(O)CC(OP(=O)(O)OC[C@H]2OC(n3ccc(N)nc3=O)[C@H](O)[C@@H]2O)(C(=O)O)OC1[C@H](O)[C@H](O)CNC(=O)c1ccc(N=[N+]=[N-])cc1O (stereo not given in full)	1.1	13.8	–	–	–	–	–
[N-]=[N+]=Nc1ccc(C(=O)NCC(=O)NC2C(O)CC(OP(=O)(O)OC[C@H]3OC(n4ccc(N)nc4=O)[C@H](O)[C@@H]3O)(C(=O)O)OC2[C@H](O)[C@H](O)CO)cc1 (stereo not given in full)	0.5	3.1	–	–	–	–	–
CC(=O)NC1C(O)CC(OP(=O)(O)OC[C@H]2OC(n3ccc(N)nc3=O)[C@H](O)[C@@H]2O)(C(=O)O)OC1[C@H](O)[C@H](O)CNC(=O)c1ccc(C(=O)c2ccccc2)cc1 (stereo not given in full)	0.8	11.8	–	–	–	–	–
NCC(=O)NC1C(O)CC(OP(=O)(O)OC[C@H]2OC(n3ccc(N)nc3=O)[C@H](O)[C@@H]2O)(C(=O)O)OC1[C@H](O)C(O)CO (stereo not given in full)	1	22.2	–	–	–	–	–
B1	–	–	68	66	80	45	161
